PMC5940383, “SMAR1 inhibits Wnt/β-catenin signaling and prevents colorectal cancer progression” (Oncotarget, 2018)
Where a SMILES comes first, the peptide text is derived from it. Where no end group is shown, it is not given here. The star is where a group is joined. Cbz = O=C(OCc1ccccc1)*

B1: rh Wnt3a: recombinant human (rh) Wnt3a ligand (protein, UniProt P56704 19-352, looked up)
Protein Wnt-3a: SYPIWWSLAVGPQYSSLGSQPILCASIPGLVPKQLRFCRNYVEIMPSVAEGIKIGIQECQHQFRGRRWNCTTVHDSLAIFGPVLDKATRESAFVHAIASAGVAFAVTRSCAEGTAAICGCSSRHQGSPGKGWKWGGCSEDIEFGGMVSREFADARENRPDARSAMNRHNNEAGRQAIASHMHLKCKCHGLSGSCEVKTCWWSQPDFRAIGDFLKDKYDSASEMVVEKHRESRGWVETLRPRYTYFKVPTERDLVYYEASPNFCEPNPETGSFGTRDRTCNVSSHGIDGCDLLCCGRGHNARAERRREKCRCVFHWCCYVSCQECTRVYDVHTCK

Tests used:
[1] = tested on: SMAR1 expression in HCT116 cells and an array of CRC cell lines; assay: Western blot / confocal: SMAR1 protein expression after peptide treatment; assay type: cell-based; conditions: Wnt3a CM or rh Wnt3a ligand (200 ng/mL), LiCl 30 mM for 6 hrs, MG132 10 μM with or without Wnt3a CM
Method: (§1) HCT116, SW480, SW620, HCT15 and HT29 cells (obtained from NCCS, Pune) were cultured in DMEM medium with 10% Fetal Bovine Serum (Gibco) and 100 Units of Penicillin Streptomycin antibiotics (Gibco). HCT116 stable cells were generated using GFP-SMAR1, GFP-control and GFP-sh-SMAR1 plasmids. si-HDAC5 plasmid was purchased from Santa Cruz Biotechnology. Conditioned medium were prepared using L cells and L-Wnt3a cells (kind gift from Jomon Joseph, NCCS Pune). After culturing for 7 days supernatant was collected and filtered through 0.22 micron syringe filter. Cells were treated with peptides (provided by Amrita Therapeutics) for 48 hours. Lipofectamine 2000 (Invitrogen) was used for transfection purposes.
(§2) Proteins were extracted using lysis buffer (50 mM Tris-Cl pH 7.5, 5 mM EDTA, 0.5% NP40, 50 mM NaF, 1 mM DTT, 0.2 mM sodium orthovanadate, 0.5 mM PMSF, 150 mM NaCl and 1X Protease Inhibitor cocktail). 40 μg proteins were transferred to PVDF membranes by Western blotting technique and blots were blocked with 5% BSA and incubated in primary antibodies. Blots were then incubated with HRP conjugated secondary antibodies and developed in X-ray films. For IP, proteins extracted were pre-cleared with Protein A/G beads (Invitrogen) and immunoprecipitated overnight with desired antibodies. Protein A/G beads were used to pull-down the protein-antibody complex and western blot was performed to check the interaction.
For confocal studies cells were fixed with 4% para-formaldehyde solution and permeabilized using 0.1% TritonX-100 solution. Cells were incubated with 1:250 dilution SMAR1 (Bethyl) antibody for 2 hours and later with 1:250 dilution Cy3 (Life Technologies) antibody for 1 hour. Coverslips containing cells were mounted using DAPI containing mounting medium (Fluoroshield with DAPI, Sigma). Human colon paraffinized tissue sections were de-paraffinized by heating in a microwave oven and later washed with xylene and alcohol. Antigen retrieval was performed and washed with PBS for further staining with 1:250 SMAR1 (Bethyl) and 1:250 β-catenin (BD Bioscience) antibodies. […]

HCT116 cells = conditions: 48 h
[2] = NOD-SCID mice, 25 mg/kg body weight intra-peritoneally on alternate days for 21 days, throughout the course of treatment
[3] = tested on: β-catenin promoter in HCT116 cells; assay: ChIP: occupancy of SMAR1, HDAC5 and H3K9 Ac at β-catenin promoter; assay type: cell-based; conditions: Wnt3a CM stimulation, mean ± SD, n = 3
Method: HCT116 cells were transfected with GFP-control, GFP-SMAR1, GFP-sh-SMAR1 or HDAC5 siRNA plasmids. ChIP was performed using Millipore reagents supplied according to the manufacturer's protocol. The protein-DNA complex were immunoprecipitated overnight at 4° C using SMAR1 (Bethyl), HDAC5 (Cell Signaling), H3K9Ac (Cell Signaling) or IgG (Santa Cruz Biotechnology) antibodies (1 μg each). PCR was performed with the primers flanking the binding sites of SMAR1 in β-catenin promoter. […]. The PCR conditions were 95° C for 1 minute, 55° C for 1 minute and 72° C for 1 minute for 35 cycles. The PCR amplicons obtained were run in 1% Agarose (Sigma) gel and documented.

[4] = tested on: β-catenin expression in HCT116 cells; assay: Western blot: β-catenin expression; assay type: cell-based; conditions: Wnt3a CM or rh Wnt3a ligand (200 ng/mL)
Method: as §1
as §2, with “Protein A/G beads were used to pull-down the protein-antibody complex and western blot was performed to check the interaction.” left out

[5] = tested on: β-catenin promoter (pEGFP1-β-catenin) in HCT116 cells; assay: Flow cytometry of pEGFP1-β-catenin GFP expression; assay type: cell-based; conditions: pEGFP1-β-catenin transfected HCT116 cells, 200 ng/mL rh Wnt3a ligand; n = 3, SD
Description: Genomic DNA was isolated from HCT116 cells and amplified with primers flanking binding sites of SMAR1 in β-catenin promoter. […]. The amplicon was ligated into pEGFP1 vector using T4 DNA ligase (NEB) after restriction digestion with XhoI and KpnI enzymes (NEB). Plasmids were transformed into DH5α E. coli competent cells and positive clones were identified after restriction digestion with XhoI and KpnI. The cloned β-catenin promoter was christened as pEGFP1-β-catenin.
HCT116 cells were co-transfected with FLAG-SMAR1 and pEGFP1-β-catenin plasmids or treated with rh Wnt3a ligand after transfection with pEGFP1-β-catenin. For flow cytometry analysis HCT116 cells were trypsinized using Trypsin-EDTA (Gibco) and washed thrice with PBS buffer. Cells were then passed through cell strainer (BD Falcon) and collected in flow cytometry tubes. GFP expressions were quantitated by subjecting 1 × 10^4 cells to BD FACSCalibur flow cytometry. FL1 channel was used to sort and quantify the GFP cells. Using CellQuest Pro software the histogram plots were derived and the GFP percentages were calculated. The graphs corresponding to the GFP percentage were generated using SigmaPlot software.

Molecule | SMAR1 protein level after treatment [1] | IC50 value (MTT assay) (HCT116 cells) [µg/mL] | adverse effects [2] | also measured
[Cl-].[Li+] [LiCl] | failed to downregulate SMAR1 |  |  | 
CC(C)C[C@@H](C=O)NC(=O)[C@H](CC(C)C)NC(=O)[C@H](CC(C)C)NC(=O)OCc1ccccc1 [MG132] (Cbz-Leu-Leu-Leu-aldehyde) | SMAR1 protein stability was observed |  |  | 
ATATVNAIRGSVTPAVSQFN [AT-01C] |  | 10 | no observable adverse effects | 
NAIRGSVTPAVSQFN [AT-01D] |  | 9.90 | no observable adverse effects | 
Wnt3a | significant downregulation of SMAR1 |  |  | increased H3K9 Ac occupancy in β-catenin promoter [3]: 4.72 fold; reduced occupancy of HDAC5 in β-catenin promoter [3]: 4.77 fold; reduced occupancy of SMAR1 in β-catenin promoter [3]: 4.54 fold; β-catenin levels after Wnt3a stimulation [4]: concomitant rise in the β-catenin levels
B1 |  |  |  | increase in GFP expression (β-catenin promoter activity) [5]: about 45%
